Experimental findings from patent publication US10336762B2 (priority 2017, dated 2019) are described below.

The subject of one assay is TNFα. As to the kind of experiment: cells. It counts as cell-based, human. The settings on record: Homo sapiens, Monocyte, LPS-stimulated human monocytes, TNFα content; read-out: EC50 TNF.
The next assay concerns the target IRAK4 enzyme (Homo sapiens (Human), UniProt Q9NWZ3). As to the kind of experiment: biochemical. The format is biochemical. The settings on record: IRAK4 enzyme, TR-FRET (HTRF), 500 μM ATP. In general terms: TR-FRET usually uses a lanthanide donor and a delayed reading to cut background.

IRAK4 enzyme, sequence (Q9NWZ3 whole entry): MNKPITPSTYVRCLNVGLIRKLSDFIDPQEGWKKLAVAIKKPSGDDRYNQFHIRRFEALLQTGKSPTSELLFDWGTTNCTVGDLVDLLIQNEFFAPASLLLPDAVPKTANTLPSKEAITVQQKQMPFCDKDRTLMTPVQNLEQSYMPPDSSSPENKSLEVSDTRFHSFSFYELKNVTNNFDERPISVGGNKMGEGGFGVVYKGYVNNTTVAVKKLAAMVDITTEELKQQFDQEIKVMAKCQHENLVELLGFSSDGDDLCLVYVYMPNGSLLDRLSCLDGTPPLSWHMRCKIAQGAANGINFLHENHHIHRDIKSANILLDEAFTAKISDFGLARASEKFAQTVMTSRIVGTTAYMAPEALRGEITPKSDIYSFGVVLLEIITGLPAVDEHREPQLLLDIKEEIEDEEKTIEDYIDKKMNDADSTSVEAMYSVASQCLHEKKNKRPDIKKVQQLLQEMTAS

Consider `CC(C)(O)[C@H](F)CNC(=O)c1cnc(-c2ccc3cc(C#N)cnn23)cc1Nc1cnn(-c2ccccn2)c1` [Example 755, (R)-6-(3-cyanopyrrolo[1,2-b]pyridazin-7-yl)-N-(2-fluoro-3-hydroxy-3-methylbutyl)-4-((1-(pyridin-2-yl)-1H-pyrazol-4-yl)amino)nicotinamide], for which, in the assay with TNFα, the concentration giving a half-maximal response (EC50) (as a rule, the midpoint of the concentration-response curve) is 16 nM. For the same molecule, it took 1 nM to reach half-maximal inhibition at IRAK4 enzyme (IC50).

Consider `COC(=O)NCC1(F)CC(Nc2cc(-c3ccc4cc(C#N)cnn34)ncc2C(=O)NC[C@@H](F)C(C)(C)O)C1` (stereo partly drawn) [Example 758, (R)-methyl ((3-((2-(3-cyanopyrrolo[1,2-b]pyridazin-7-yl)-5-((2-fluoro-3-hydroxy-3-methylbutyl)carbamoyl)pyridin-4-yl)amino)-1-fluorocyclobutyl)methyl)carbamate], for which the 50% effective concentration (EC50) in the assay on TNFα came to 11 nM. Further, at IRAK4 enzyme, the IC50 (commonly the point on the concentration scale where inhibition reaches its midpoint) was found to be 1 nM.

As to `CC(C)(O)[C@H](F)CNC(=O)c1cnc(-c2ccc3cc(C#N)cnn23)cc1Nc1cnn(-c2ccncc2)c1` [Example 761, (R)-6-(3-cyanopyrrolo[1,2-b]pyridazin-7-yl)-N-(2-fluoro-3-hydroxy-3-methylbutyl)-4-((1-(pyridin-4-yl)-1H-pyrazol-4-yl)amino) nicotinamide], the half-maximal effective concentration (EC50) in the assay with TNFα is 26 nM. On IRAK4 enzyme, this molecule returned a half-maximal inhibitory concentration (IC50) below 1 nM.

For `CC(C)(O)[C@H](F)CNC(=O)c1cnc(-c2ccc3cc(C#N)cnn23)cc1Nc1ccc(-n2cncn2)cc1` [Example 762, (R)-4-((4-(1H-1,2,4-triazol-1-yl)phenyl)amino)-6-(3-cyanopyrrolo[1,2-b]pyridazin-7-yl)-N-(2-fluoro-3-hydroxy-3-methylbutyl)nicotinamide], in the assay on TNFα, the EC50 amounted to 7 nM. Besides, the half-maximal inhibitory concentration (IC50) against IRAK4 enzyme was below 1 nM.

For the molecule `CC(C)(O)[C@H](F)CNC(=O)c1cnc(-c2ccc3cc(C#N)cnn23)cc1NC1CC2(CNC(=O)O2)C1` (stereo partly drawn) [Example 763, (R)-6-(3-cyanopyrrolo[1,2-b]pyridazin-7-yl)-N-(2-fluoro-3-hydroxy-3-methylbutyl)-4-((6-oxo-5-oxa-7-azaspiro[3.4]octan-2-yl)amino)nicotinamide], the EC50 in the assay on TNFα came to 155 nM. Also, the IC50 against IRAK4 enzyme was below 1 nM.

Take `CC(C)(O)[C@H](F)CNC(=O)c1cnc(-c2ccc3cc(C#N)cnn23)cc1Nc1ccc(-n2cncn2)nc1` [Example 766, (R)-4-((6-(1H-1,2,4-triazol-1-yl)pyridin-3-yl)amino)-6-(3-cyanopyrrolo[1,2-b]pyridazin-7-yl)-N-(2-fluoro-3-hydroxy-3-methyl-butyl)nicotinamide]: the EC50 in the assay on TNFα worked out at 38 nM. At IRAK4 enzyme, the IC50 is below 1 nM.

On to `CC(C)(O)[C@H](F)CNC(=O)c1cnc(-c2ccc3cc(C#N)cnn23)cc1Nc1ccc(-n2ccnc2)cc1` [Example 767, (R)-4-((4-(1H-imidazol-1-yl)phenyl)amino)-6-(3-cyanopyrrolo[1,2-b]pyridazin-7-yl)-N-(2-fluoro-3-hydroxy-3-methylbutyl)nicotinamide], for which the half-maximal effective concentration (EC50) with TNFα turned out to be 35 nM. Besides, the IC50 at IRAK4 enzyme was below 1 nM.

With `CC(C)(O)[C@H](F)CNC(=O)c1cnc(-c2ccc3cc(C#N)cnn23)cc1Nc1ccc(-n2ccnc2)nc1` [Example 768, (R)-4-((6-(1H-imidazol-1-yl)pyridin-3-yl)amino)-6-(3-cyanopyrrolo[1,2-b]pyridazin-7-yl)-N-(2-fluoro-3-hydroxy-3-methyl-butyl)nicotinamide], the concentration giving a half-maximal response (EC50) with TNFα was 24 nM. This molecule also came in with an IC50 on IRAK4 enzyme below 1 nM.

For `CC(C)(O)[C@H](F)CNC(=O)c1cnc(-c2ccc3cc(C#N)cnn23)cc1Nc1ccc(-n2cccn2)cc1` [Example 769, (R)-4-((4-(1H-pyrazol-1-yl)phenyl)amino)-6-(3-cyanopyrrolo[1,2-b]pyridazin-7-yl)-N-(2-fluoro-3-hydroxy-3-methylbutyl)nicotinamide], the concentration for a half-maximal effect (EC50) with TNFα came out at 44 nM. For the same molecule, the IC50 at IRAK4 enzyme was below 1 nM.
